# Results taken from US9221761B2, “Method for inhibition of deubiquitinating activity” (Vivolux AB, priority 2011, dated 2015).
# How the values were obtained:
# [1] = test system: HCT-116 cells; experiment: Cell cycle arrest and DNA damage markers; type: cell-based
# [2] = test system: HCT116 colon cancer cells; experiment: Apoptosis in isogenic clones of HCT116 colon cancer cells; type: cell-based
# From the text: The increase in sub G1 DNA, caspase-3 activation and cleavage of poly-ADP ribose polymerase (PARP) and cytokeratin is associated with an overall decrease in cell viability at drug concentrations that induce the accumulation of polyubiquitin connecting UPS inhibition and apoptosis. Apoptosis induction by bortezomib is sensitive to the status of the p53 tumor suppressor and over-expression of the anti-apoptotic Bcl-2 oncoprotein (11, 12). […] Cell culture. MCF7 cells are maintained in MEM/10% fetal calf serum. HCT-116 p53+/+, p53−/−, Bcl-2+/+, PUMA−/− and BAX−/− cells are maintained in McCoy's 5A modified medium/10% fetal calf serum. The HCT-116 p53+/+, p53−/−, PUMA−/− and BAX−/− are generated as described (25). The HCT-116 Bcl-2+/+ cell line was generated by transfecting parental HCT-116 p53+/+ cells with pCEP4 Bcl-2 (Addgene plasmid 16461) (26) and isolating high expression clones. FaDu and LLC3 cells are maintained in DMEM high glucose medium supplemented with 10% fetal calf serum, Na pyruvate, Hepes and non-essential amino acids. 4T1.12B carcinoma cells are maintained in RPMI medium supplemented with 10% fetal calf serum. The proteasome reporter cell line MelJuSo Ub-YFP was generated as described (12). […] Cell viability is determined by measuring acid phosphatase activity or using the FMCA method (32). […] Absorbance is measured at 405 nm. […]
# [3] = target: T1, 19S RP (Homo sapiens, UniProt P54578+Q9Y5K5); experiment: Ubiquitin-cleavage assay (Ub-GFP, ubiquitinated Hdm2); type: biochemical; conditions: 19S RP 25 nM, 50 μM compound, 10 min
# T1 construct: purchased Boston Biochem E-366
# Method: Recombinant ubiquitin-GFP is a substrate for 19S RP DUB activity (15). […] The type of ubiquitin bonds present in the polyubiquitin chain determines the fate of an ubiquitin-modified substrate.
# Ubiquitin-cleavage assay. The recombinant Ub-GFP plasmid pet19b Ub-M-GFP is generated as described (30). In brief recombinant Ub-GFP is purified from BL21 E. coli cells by His affinity purification. For cleavage assays 19S RP (25 nM) is incubated with 10 mM NEM, 250 μM TPEN or 50 μM of the compound of the invention for 10 min followed by the addition of recombinant Ub-GFP (200 nM). Ubiquitin chain disassembly reactions are performed essentially as above except K48- or K63-linked ubiquitin tetramers (50 ng) are substituted for Ub-GFP. The level of Ub-GFP cleavage or ubiquitin disassembly is determined by immunoblotting with anti ubiquitin antibodies. The ubiquitinated Hdm2 substrate is generated according to the Boston Biochem protocol (K-200). For the cleavage assay 19S RP (25 nM) is incubated with 50 μM of the compound of the invention or DMSO for 10 min followed by the addition of ubiquitinated Hdm2 substrate (100 nM). The cleavage of ubiquitinated Hdm2 substrate and ubiquitinated Hdm2 is determined by immunoblotting with anti-Hdm2 antibodies.
smiles,measurement,setting,value
C=CC(=O)N1C/C(=C\c2ccc([N+](=O)[O-])cc2)C(=O)/C(=C/c2ccc([N+](=O)[O-])cc2)C1 [b-AP15],"genotoxicity (DNA damage markers phosphorylated p53 Ser 15, H2AX Ser 139)",[1],not a genotoxic agent
same,"sensitivity of induced apoptosis to over-expression of Bcl-2 and disruption of p52, BAX or PUMA",[2],insensitive
same,cleavage of Ub-GFP and ubiquitinated HDM2 by 19S RP,[3],efficiently inhibited
